Source: US11524938B2, “Aromatic sulfonamide derivatives” (Bayer Pharma Aktiengesellschaft, priority 2016, dated 2022)

Biological target: T1, human P2X4 (Homo sapiens, UniProt Q99571)
T1 sequence (Q99571 1-388): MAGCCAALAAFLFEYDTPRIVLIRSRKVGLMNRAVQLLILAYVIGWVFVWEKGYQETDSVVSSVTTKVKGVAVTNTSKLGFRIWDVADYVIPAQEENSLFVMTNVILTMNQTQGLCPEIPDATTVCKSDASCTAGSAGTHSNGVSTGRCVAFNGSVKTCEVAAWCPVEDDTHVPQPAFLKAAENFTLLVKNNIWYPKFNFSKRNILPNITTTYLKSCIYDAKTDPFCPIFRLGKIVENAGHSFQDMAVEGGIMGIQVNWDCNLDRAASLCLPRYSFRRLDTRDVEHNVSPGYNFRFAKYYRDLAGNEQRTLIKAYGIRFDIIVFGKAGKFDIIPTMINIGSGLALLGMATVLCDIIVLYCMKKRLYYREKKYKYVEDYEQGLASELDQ
Assay: Human P2X4 HEK Cell FLIPR Assay
Format: cell-based
Details: agonist Bz-ATP at EC80; for Emax: HEK293, HEK293 cells, percentage of maximal inhibition, read-out: Human P2X4 HEK Cells (FLIPR Assay) avg Efficacy [%]; for IC50: HEK293 cells, individual values listed where some fall outside detection range
Procedure: HEK293 cells stably expressing human P2X4 were plated in poly-D-lysine-coated 384-well plates at a seeding density of 30000 cells/well and incubated overnight. P2X4 function was assessed by measuring intracellular calcium changes using the calcium-chelating dye Fluo8-AM (Molecular Devices) on a fluorescent imaging plate reader (FLEX/FLIPR station; Molecular Devices). On the day of the assay, the medium was removed and the cells were incubated for 30 min at 37° C. and 5% CO2 in 30 μL of dye buffer (Hank's balanced salt solution, 10 mM HEPES, 1.8 mM CaCl2, 1 mM MgCl2, 2 mM probenecid, 5 mM D-glucose monohydrate, 5 μM Fluo8-AM, pH=7.4). Compounds diluted in probenecid buffer (Hank's balanced salt solution, 10 mM HEPES, 1.8 mM CaCl2, 1 mM MgCl2, 2 mM probenecid, 5 mM D-glucose monohydrate, pH=7.4) were added in a volume of 10 μL and allowed to incubate for 30 min at room temperature. The final assay DMSO concentration was 0.5%. The agonist, Bz-ATP (Tocris), was added in a volume of 10 μL at a concentration representing the EC80 value. The EC80 value of Bz-ATP was determined each assay day prior to compound profiling. The fluorescence was measured for an interval of 120 sec at 2 sec intervals. The excitation and emission wavelengths used to monitor fluorescence were 470-495 nm and 515-575 nm, respectively. The data was analyzed based on the increase in peak relative fluorescence units (RFU) compared to the basal fluorescence and the data was normalized to the agonist control. The compounds were tested in triplicates per plate and mean values were plotted in Excel XLFit to determine IC50 values, percentage of maximal inhibition and the Hill coefficients.

| SMILES | Emax [%] | IC50 [nM] |
| --- | --- | --- |
| CC(C)Cc1ncn(-c2ccc(NC(=O)Cc3ccccc3Cl)cc2S(N)(=O)=O)n1 [Example 29, 2-(2-Chlorophenyl)-N-[4-(3-isobutyl-1H-1,2,4-triazol-1-yl)-3-sulfamoylphenyl]-acetamide] | 75 | 113 |
| CSc1cnn(-c2ccc(NC(=O)Cc3ccccc3Cl)cc2S(N)(=O)=O)c1 [Example 30, 2-(2-Chlorophenyl)-N-{4-[4-(methylsulfanyl)-1H-pyrazol-1-yl]-3-sulfamoylphenyl}-acetamide] | 87 | 222 |
| COc1cnn(-c2ccc(NC(=O)Cc3ccccc3Cl)cc2S(N)(=O)=O)c1 [Example 31, 2-(2-Chlorophenyl)-N-[4-(4-methoxy-1H-pyrazol-1-yl)-3-sulfamoylphenyl]acetamide] | 81 | 112 |
| CN(C)c1ncn(-c2ccc(NC(=O)Cc3ccccc3Cl)cc2S(N)(=O)=O)n1 [Example 34, 2-(2-Chlorophenyl)-N-{4-[3-(dimethylamino)-1H-1,2,4-triazol-1-yl]-3-sulfamoyl-phenyl}acetamide] | 79 | 448 |
| NS(=O)(=O)c1cc(NC(=O)Cc2ccccc2Cl)ccc1-n1cnc(C2CC2)n1 [Example 36, (2-Chlorophenyl)-N-[4-(3-cyclopropyl-1H-1,2,4-triazol-1-yl)-3-sulfamoylphenyl]-acetamide] | 81 | 667 |
| NS(=O)(=O)c1cc(NC(=O)Cc2ccccc2Cl)ccc1-n1ncnc1C1CC1 [Example 37, 2-(2-Chlorophenyl)-N-[4-(5-cyclopropyl-1H-1,2,4-triazol-1-yl)-3-sulfamoyl-phenyl]acetamide] | 81 | 848 |
| COCc1ncn(-c2ccc(NC(=O)Cc3ccccc3Cl)cc2S(N)(=O)=O)n1 [Example 38, 2-(2-Chlorophenyl)-N-{4-[3-(methoxymethyl)-1H-1,2,4-triazol-1-yl]-3-sulfamoyl-phenyl}acetamide] | 87 | 329 |
| N#Cc1ncn(-c2ccc(NC(=O)Cc3ccccc3Cl)cc2S(N)(=O)=O)n1 [Example 41, 2-(2-Chlorophenyl)-N-[4-(3-cyano-1H-1,2,4-triazol-1-yl)-3-sulfamoylphenyl]acetamide] | 70 | 357 |
| NS(=O)(=O)c1cc(NC(=O)Cc2ccccc2Cl)ccc1-n1cnc(Br)c1 [Example 42, N-[4-(4-Bromo-1H-imidazol-1-yl)-3-sulfamoylphenyl]-2-(2-chlorophenyl)acetamide] | 71 | 24 |
| NS(=O)(=O)c1cc(NC(=O)Cc2ccccc2Cl)ccc1-n1cnc2cnccc21 [Example 45, 2-(2-Chlorophenyl)-N-[4-(1H-imidazo[4,5-c]pyridin-1-yl)-3-sulfamoylphenyl]-acetamide] | 74 | 75 |
| NS(=O)(=O)c1cc(NC(=O)Cc2ccccc2Cl)ccc1-n1cnc2ccncc21 [Example 46, 2-(2-Chlorophenyl)-N-[4-(3H-imidazo[4,5-c]pyridin-3-yl)-3-sulfamoylphenyl]-acetamide] | 87 | 916 |
| NS(=O)(=O)c1cc(NC(=O)Cc2ccccc2F)ccc1-n1cc(F)cn1 [Example 48, 2-(2-Fluorophenyl)-N-[4-(4-fluoro-1H-pyrazol-1-yl)-3-sulfamoylphenyl]acetamide] | 82 | 297 |
| NS(=O)(=O)c1cc(NC(=O)Cc2ccccc2C(F)F)ccc1-n1cc(Cl)cn1 [Example 49, N-[4-(4-Chloro-1H-pyrazol-1-yl)-3-sulfamoylphenyl]-2-[2-(difluoromethyl)-phenyl]acetamide] | 94 | 135 |
| NS(=O)(=O)c1cc(NC(=O)Cc2ccccc2F)ccc1-n1cc(Cl)cn1 [Example 50, N-[4-(4-Chloro-1H-pyrazol-1-yl)-3-sulfamoylphenyl]-2-(2-fluorophenyl)acetamide] | 88 | 149 |
| NS(=O)(=O)c1cc(NC(=O)Cc2ccccc2C(F)F)ccc1-n1cc(F)cn1 [Example 51, 2-[2-(Difluoromethyl)phenyl]-N-[4-(4-fluoro-1H-pyrazol-1-yl)-3-sulfamoyl-phenyl]acetamide] | 94 | 134 |
| N#Cc1cnn(-c2ccc(NC(=O)Cc3ccccc3F)cc2S(N)(=O)=O)c1 [Example 52, N-[4-(4-Cyano-1H-pyrazol-1-yl)-3-sulfamoylphenyl]-2-(2-fluorophenyl)acetamide] | 82 | 154 |
| NS(=O)(=O)c1cc(NC(=O)Cc2ccccc2F)ccc1-n1cnc(C(F)(F)F)n1 [Example 54, 2-(2-Fluorophenyl)-N-{3-sulfamoyl-4-[3-(trifluoromethyl)-1H-1,2,4-triazol-1-yl]phenyl}acetamide] | 75 | 557 |

More lines, in order of falling IC50, values ahead:

| Emax [%] | IC50 [nM] | SMILES |
| --- | --- | --- |
| 90 | 1240 | CC(C)(C)c1cn(-c2ccc(NC(=O)Cc3ccccc3Cl)cc2S(N)(=O)=O)cn1 [Example 40, N-[4-(4-tert-Butyl-1H-imidazol-1-yl)-3-sulfamoylphenyl]-2-(2-chlorophenyl)acetamide] |
| 66 | 472 | Cc1cn(-c2ccc(NC(=O)Cc3ccccc3Cl)cc2S(N)(=O)=O)c(C)n1 [Example 47, 2-(2-Chlorophenyl)-N-[4-(2,4-dimethyl-1H-imidazol-1-yl)-3-sulfamoylphenyl]-acetamide] |
| 97 | 378 | NS(=O)(=O)c1cc(NC(=O)Cc2ccccc2Cl)ccc1-n1cnc2ncccc21 [Example 44, 2-(2-Chlorophenyl)-N-[4-(1H-imidazo[4,5-b]pyridin-1-yl)-3-sulfamoylphenyl]-acetamide] |
| 90 | 224 | CCc1ncn(-c2ccc(NC(=O)Cc3ccccc3Cl)cc2S(N)(=O)=O)n1 [Example 35, 2-(2-Chlorophenyl)-N-[4-(3-ethyl-1H-1,2,4-triazol-1-yl)-3-sulfamoylphenyl]acetamide] |
| 87 | 210 | NS(=O)(=O)c1cc(NC(=O)Cc2ccccc2Cl)ccc1-n1cnc2cccnc21 [Example 43, 2-(2-Chlorophenyl)-N-[4-(3H-imidazo[4,5-b]pyridin-3-yl)-3-sulfamoylphenyl]-acetamide] |
| 52 | 169 | COc1ccccc1CC(=O)Nc1ccc(-n2cnc(C(F)(F)F)n2)c(S(N)(=O)=O)c1 [Example 53, 2-(2-Methoxyphenyl)-N-{3-sulfamoyl-4-[3-(trifluoromethyl)-1H-1,2,4-triazol-1-yl]-phenyl}acetamide] |
| 93 | 139 | NS(=O)(=O)c1cc(NC(=O)Cc2ccccc2Cl)ccc1-n1cnc2ccccc21 [Example 32, N-[4-(1H-Benzimidazol-1-yl)-3-sulfamoylphenyl]-2-(2-chlorophenyl)acetamide] |
| 74 | 70 | CC(C)Oc1cnn(-c2ccc(NC(=O)Cc3ccccc3Cl)cc2S(N)(=O)=O)c1 [Example 27, 2-(2-Chlorophenyl)-N-[4-(4-isopropoxy-1H-pyrazol-1-yl)-3-sulfamoylphenyl]-acetamide] |
| 79 | 31 | NS(=O)(=O)c1cc(NC(=O)Cc2ccccc2Cl)ccc1-n1cnc(Cl)c1 [Example 33, N-[4-(4-Chloro-1H-imidazol-1-yl)-3-sulfamoylphenyl]-2-(2-chlorophenyl)acetamide] |
